From PubChem BioAssay AID1918932 (Molecular Pharmacology Branch, DTP, NCI, 2023)
pIC50: −log10 of the molar value. Where “and” joins values, the source holds several entries; their conditions need not be identical. Identical values can stand only once.

Test system: 171881-019-R-J1-PDC complex spheroid viability
Experiment: Anticancer human tumor 171881-019-R-J1-PDC patient-derived invasive breast carcinoma cell line growth inhibition
Conditions: for viability, T/C: stronger effect = lower value
Outline: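 Complex spheroids of tumor cells with HUVEC and human MSCs, exposed to iadademstat combined with other agents. Each agent tested in half-log steps from near clinical Cmax (else 10 microM top), DMSO ≤0.25%.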

[1] = curve of first compound, second compound 0.1 µM
[2] = curve of first compound, second compound 0.316 µM
[3] = curve of first compound, second compound 1 µM
[4] = curve of first compound, second compound 3.16 µM
[5] = curve of first compound, second compound 10 µM
[6] = second compound 0.1 µM, first compound 0.0316 µM
[7] = second compound 0.1 µM, first compound 0.1 µM
[8] = second compound 0.1 µM, first compound 0.316 µM
[9] = second compound 0.1 µM, first compound 1 µM
[10] = second compound 0.316 µM, first compound 0.0316 µM
[11] = second compound 0.316 µM, first compound 0.1 µM
[12] = second compound 0.316 µM, first compound 0.316 µM
[13] = second compound 0.316 µM, first compound 1 µM
[14] = second compound 1 µM, first compound 0.0316 µM
[15] = second compound 1 µM, first compound 0.1 µM
[16] = second compound 1 µM, first compound 0.316 µM
[17] = second compound 1 µM, first compound 1 µM
[18] = second compound 3.16 µM, first compound 0.0316 µM
[19] = second compound 3.16 µM, first compound 0.1 µM
[20] = second compound 3.16 µM, first compound 0.316 µM
[21] = second compound 3.16 µM, first compound 1 µM
[22] = second compound 10 µM, first compound 0.0316 µM
[23] = second compound 10 µM, first compound 0.1 µM
[24] = second compound 10 µM, first compound 0.316 µM
[25] = second compound 10 µM, first compound 1 µM

Compound: CC(C)c1c(-c2ccccc2)nc2c(C#N)c[nH]n2c1=O
- viability, T/C (compound 0.0316 µM): 95.8% and 97.3%
- viability, T/C (compound 0.1 µM): 92.4% and 99.1%
- viability, T/C (compound 0.316 µM): 87.7% and 97.2%
- viability, T/C (compound 1 µM): 89.9% and 88%
- viability, T/C (compound 3.16 µM): 94% and 67.1%
- viability, T/C (compound 10 µM): 95.2% and 19.2%
- pIC50 (curve of compound): < 5.00 and 5.32

Compound: CC1COCCN1c1cc(C2(S(C)(=N)=O)CC2)nc(-c2ccnc3[nH]ccc23)n1 (configuration not stated) + NC1CC1c1ccc(-c2cccc(O)c2)cc1
- pIC50 [1]: 5.86
- pIC50 [2]: 5.84
- pIC50 [3]: 5.83
- pIC50 [4]: 5.85
- pIC50 [5]: 5.94
- viability, T/C [6]: 103%
- viability, T/C [7]: 102%
- viability, T/C [8]: 97.9%
- viability, T/C [9]: 59.6%
- viability, T/C (second compound 0.1 µM, first compound 3.16 µM): 22.3%
- viability, T/C (second compound 0.1 µM, first compound 10 µM): 9.45%
- viability, T/C [10]: 106%
- viability, T/C [11]: 103%
- viability, T/C [12]: 99.3%
- viability, T/C [13]: 61.1%
- viability, T/C (second compound 0.316 µM, first compound 3.16 µM): 24.7%
- viability, T/C (second compound 0.316 µM, first compound 10 µM): 9.56%
- viability, T/C [14]: 103%
- viability, T/C [15]: 104%
- viability, T/C [16]: 91.1%
- viability, T/C [17]: 63.5%
- viability, T/C (second compound 1 µM, first compound 3.16 µM): 24.3%
- viability, T/C (second compound 1 µM, first compound 10 µM): 9.48%
- viability, T/C [18]: 99.5%
- viability, T/C [19]: 104%
- viability, T/C [20]: 96.9%
- viability, T/C [21]: 61.5%
- viability, T/C (second compound 3.16 µM, first compound 3.16 µM): 21.8%
- viability, T/C (second compound 3.16 µM, first compound 10 µM): 8.64%
- viability, T/C [22]: 86.4%
- viability, T/C [23]: 87.7%
- viability, T/C [24]: 81.6%
- viability, T/C [25]: 53.3%
- viability, T/C (second compound 10 µM, first compound 3.16 µM): 21.1%
- viability, T/C (second compound 10 µM, first compound 10 µM): 8.98%

Compound: CCc1c2c(nc3ccc(O)cc13)-c1cc3c(c(=O)n1C2)COC(=O)[C@]3(O)CC + NC1CCC(NC2CC2c2ccccc2)CC1
- pIC50 [1]: 8.46
- pIC50 [2]: 8.41
- pIC50 [3]: 8.31
- pIC50 [4]: 8.26
- pIC50 [5]: 8.24
- viability, T/C (second compound 0.1 µM, first compound 0.000949 µM): 64.2%
- viability, T/C (second compound 0.1 µM, first compound 0.003 µM): 53.5%
- viability, T/C (second compound 0.1 µM, first compound 0.00949 µM): 32.2%
- viability, T/C (second compound 0.1 µM, first compound 0.03 µM): 20.5%
- viability, T/C (second compound 0.1 µM, first compound 0.0949 µM): 8.51%
- viability, T/C (second compound 0.1 µM, first compound 0.3 µM): 6.45%
- viability, T/C (second compound 0.316 µM, first compound 0.000949 µM): 67.5%
- viability, T/C (second compound 0.316 µM, first compound 0.003 µM): 55.5%
- viability, T/C (second compound 0.316 µM, first compound 0.00949 µM): 33.2%
- viability, T/C (second compound 0.316 µM, first compound 0.03 µM): 20.6%
- viability, T/C (second compound 0.316 µM, first compound 0.0949 µM): 9.31%
- viability, T/C (second compound 0.316 µM, first compound 0.3 µM): 6.46%
- viability, T/C (second compound 1 µM, first compound 0.000949 µM): 69.5%
- viability, T/C (second compound 1 µM, first compound 0.003 µM): 61.4%
- viability, T/C (second compound 1 µM, first compound 0.00949 µM): 34.8%
- viability, T/C (second compound 1 µM, first compound 0.03 µM): 22.4%
- viability, T/C (second compound 1 µM, first compound 0.0949 µM): 10.3%
- viability, T/C (second compound 1 µM, first compound 0.3 µM): 7.43%
- viability, T/C (second compound 3.16 µM, first compound 0.000949 µM): 75%
- viability, T/C (second compound 3.16 µM, first compound 0.003 µM): 65.3%
- viability, T/C (second compound 3.16 µM, first compound 0.00949 µM): 35.5%
- viability, T/C (second compound 3.16 µM, first compound 0.03 µM): 21.9%
- viability, T/C (second compound 3.16 µM, first compound 0.0949 µM): 10.3%
- viability, T/C (second compound 3.16 µM, first compound 0.3 µM): 7.23%
- viability, T/C (second compound 10 µM, first compound 0.000949 µM): 86%
- viability, T/C (second compound 10 µM, first compound 0.003 µM): 66.8%
- viability, T/C (second compound 10 µM, first compound 0.00949 µM): 35.6%
- viability, T/C (second compound 10 µM, first compound 0.03 µM): 21.8%
- viability, T/C (second compound 10 µM, first compound 0.0949 µM): 9.69%
- viability, T/C (second compound 10 µM, first compound 0.3 µM): 6.81%

Compound: Nc1ncn(C2CC(O)C(CO)O2)c(=O)n1 (configuration not stated) + NC1CC1c1ccc(-c2cccc(O)c2)cc1
- pIC50 [1]: < 6.00
- pIC50 [2]: < 6.00
- pIC50 [3]: < 6.00
- pIC50 [4]: < 6.00
- pIC50 [5]: < 6.00
- viability, T/C (second compound 0.1 µM, first compound 0.00316 µM): 102%
- viability, T/C (second compound 0.1 µM, first compound 0.01 µM): 98.4%
- viability, T/C [6]: 97.7%
- viability, T/C [7]: 88.4%
- viability, T/C [8]: 93.8%
- viability, T/C [9]: 85.1%
- viability, T/C (second compound 0.316 µM, first compound 0.00316 µM): 102%
- viability, T/C (second compound 0.316 µM, first compound 0.01 µM): 98.6%
- viability, T/C [10]: 95.1%
- viability, T/C [11]: 96.2%
- viability, T/C [12]: 90.8%
- viability, T/C [13]: 90.4%
- viability, T/C (second compound 1 µM, first compound 0.00316 µM): 106%
- viability, T/C (second compound 1 µM, first compound 0.01 µM): 102%
- viability, T/C [14]: 95%
- viability, T/C [15]: 96.3%
- viability, T/C [16]: 92.6%
- viability, T/C [17]: 85.1%
- viability, T/C (second compound 3.16 µM, first compound 0.00316 µM): 102%
- viability, T/C (second compound 3.16 µM, first compound 0.01 µM): 96%
- viability, T/C [18]: 95.8%
- viability, T/C [19]: 96%
- viability, T/C [20]: 87%
- viability, T/C [21]: 82.1%
- viability, T/C (second compound 10 µM, first compound 0.00316 µM): 82.4%
- viability, T/C (second compound 10 µM, first compound 0.01 µM): 80.6%
- viability, T/C [22]: 81.4%
- viability, T/C [23]: 81%
- viability, T/C [24]: 80%
- viability, T/C [25]: 74.8%
